According to the NIST ThermoML archive (doi:10.1021/je700261b):

Assay: xn = mol fraction of the nth substance listed
Conditions: Liquid

CCCCO [butan-1-ol] + O=C=O
Conditions | mass density [kg/m3]
323.07 K, 16977 kPa, x2 = 0.0857 | 807.17
323.07 K, 18030 kPa, x2 = 0.0857 | 808.01
323.07 K, 18995 kPa, x2 = 0.0857 | 808.74
323.07 K, 19987 kPa, x2 = 0.0857 | 809.54
323.07 K, 21040 kPa, x2 = 0.0857 | 810.38
323.07 K, 21992 kPa, x2 = 0.0857 | 811.09
323.07 K, 23011 kPa, x2 = 0.0857 | 811.87
323.07 K, 24000 kPa, x2 = 0.0857 | 812.6
323.07 K, 25007 kPa, x2 = 0.0857 | 813.42
323.1 K, 10109 kPa, x2 = 0.4972 | 818.96
323.1 K, 11078 kPa, x2 = 0.4972 | 820.55
323.1 K, 11078 kPa, x2 = 0.5965 | 822.9
323.1 K, 12051 kPa, x2 = 0.4972 | 822.08
323.1 K, 12072 kPa, x2 = 0.5965 | 825.03
323.1 K, 12077 kPa, x2 = 0.8663 | 777.48
323.1 K, 13046 kPa, x2 = 0.8663 | 787.33
323.1 K, 13049 kPa, x2 = 0.4972 | 823.64
323.1 K, 13059 kPa, x2 = 0.5965 | 827.1
323.1 K, 14029 kPa, x2 = 0.8663 | 796.15
323.1 K, 14053 kPa, x2 = 0.4972 | 825.18
323.1 K, 14067 kPa, x2 = 0.5965 | 829.16
323.1 K, 15041 kPa, x2 = 0.4972 | 826.62
323.1 K, 15050 kPa, x2 = 0.8663 | 804.37
323.1 K, 15063 kPa, x2 = 0.5965 | 831.15
323.1 K, 16046 kPa, x2 = 0.5965 | 833.04
323.1 K, 16058 kPa, x2 = 0.4972 | 828.14
323.1 K, 16077 kPa, x2 = 0.8663 | 811.86
323.1 K, 17030 kPa, x2 = 0.5965 | 834.9
323.1 K, 17044 kPa, x2 = 0.8663 | 818.37
323.1 K, 17051 kPa, x2 = 0.4972 | 829.54
323.1 K, 18024 kPa, x2 = 0.8663 | 824.54
323.1 K, 18049 kPa, x2 = 0.5965 | 836.78
323.1 K, 18061 kPa, x2 = 0.4972 | 830.96
323.1 K, 19022 kPa, x2 = 0.4972 | 832.33
323.1 K, 19033 kPa, x2 = 0.8663 | 830.52
323.1 K, 19044 kPa, x2 = 0.5965 | 838.57
323.1 K, 20021 kPa, x2 = 0.4972 | 833.69
323.1 K, 20028 kPa, x2 = 0.8663 | 835.95
323.1 K, 20039 kPa, x2 = 0.5965 | 840.32
323.1 K, 21026 kPa, x2 = 0.8663 | 841.13
323.1 K, 21047 kPa, x2 = 0.4972 | 835.06
323.1 K, 21064 kPa, x2 = 0.5965 | 842.09
323.1 K, 22036 kPa, x2 = 0.4972 | 836.36
323.1 K, 22041 kPa, x2 = 0.5965 | 843.75
323.1 K, 22054 kPa, x2 = 0.8663 | 846.3
323.1 K, 23023 kPa, x2 = 0.5965 | 845.38
323.1 K, 23023 kPa, x2 = 0.8663 | 850.85
323.1 K, 23045 kPa, x2 = 0.4972 | 837.69
323.1 K, 23996 kPa, x2 = 0.4972 | 838.91
323.1 K, 24006 kPa, x2 = 0.8663 | 855.33
323.1 K, 24008 kPa, x2 = 0.5965 | 847
323.1 K, 25012 kPa, x2 = 0.4972 | 840.21
323.1 K, 25040 kPa, x2 = 0.5965 | 848.65
323.1 K, 25041 kPa, x2 = 0.8663 | 859.75
332.94 K, 1010 kPa, x2 = 0.0251 | 781.57
332.94 K, 2077 kPa, x2 = 0.0251 | 782.55
332.94 K, 3046 kPa, x2 = 0.0251 | 783.47
332.94 K, 3990 kPa, x2 = 0.0251 | 784.3
332.94 K, 5002 kPa, x2 = 0.0251 | 785.22
332.94 K, 6026 kPa, x2 = 0.0251 | 786.15
332.94 K, 6975 kPa, x2 = 0.0251 | 786.98
332.94 K, 8009 kPa, x2 = 0.0251 | 787.91
332.94 K, 9084 kPa, x2 = 0.0251 | 788.83
332.94 K, 9985 kPa, x2 = 0.0251 | 789.62
332.94 K, 11024 kPa, x2 = 0.0251 | 790.52
332.94 K, 12040 kPa, x2 = 0.0251 | 791.34
332.94 K, 12968 kPa, x2 = 0.0251 | 792.12
332.94 K, 12999 kPa, x2 = 0.9698 | 600.03
332.94 K, 13994 kPa, x2 = 0.0251 | 792.95
332.94 K, 14036 kPa, x2 = 0.9698 | 638.84
332.94 K, 15021 kPa, x2 = 0.9698 | 667.05
332.94 K, 15041 kPa, x2 = 0.0251 | 793.85
332.94 K, 16014 kPa, x2 = 0.9698 | 689.92
332.94 K, 16061 kPa, x2 = 0.0251 | 794.54
332.94 K, 17001 kPa, x2 = 0.0251 | 795.37
332.94 K, 17022 kPa, x2 = 0.9698 | 709.37
332.94 K, 18009 kPa, x2 = 0.9698 | 725.81
332.94 K, 18031 kPa, x2 = 0.0251 | 796.18
332.94 K, 19010 kPa, x2 = 0.9698 | 740.47
332.94 K, 19042 kPa, x2 = 0.0251 | 796.95
332.94 K, 20027 kPa, x2 = 0.0251 | 797.73
332.94 K, 20028 kPa, x2 = 0.9698 | 753.7
332.94 K, 20987 kPa, x2 = 0.0251 | 798.46
